# Reference: ChEMBL document CHEMBL6153165, “Clozapine as an E3 Ligand for PROTAC Technology” (ACS Med Chem Lett, 2025)
# Active and inactive are the calls of the source. The rule behind the calls is not given here.
# Key:
# HEK293 [1] = assay: (§1) PROTAC activity at E3-ubiquitin ligase/Halo-tagged Brazilian click beetle Emerald luciferase expressed in human HEK293 cells assessed as decrease in Halo-ELuc protein level by measuring Halo-Eluc to beta-actin ratio at 1 uM incubated for 24 hrs by luciferase based Western blotting analysis (reference value: 100%); type: cell-based; set-up: scale not given: the % may be the effect or the level left
# HEK293 [2] = assay: as §1, with “at 20” for “at 1”; type: cell-based; set-up: scale not given: the % may be the effect or the level left
# HEK293 [3] = assay: PROTAC activity at E3-ubiquitin ligase/Halo-tagged Brazilian click beetle Emerald luciferase expressed in human HEK293 cells assessed as decrease in Halo-ELuc protein level pretreated with 1-chlorohexane for 2 hrs followed by compound addition and measured after 24 hrs by competitive assay; type: cell-based
# HEK293 [4] = assay: PROTAC activity at E3-ubiquitin ligase/Halo-tagged Brazilian click beetle Emerald luciferase expressed in human HEK293 cells assessed as decrease in Halo-ELuc protein level pretreated with compound followed by 1-chlorohexane addition and measured after 24 hrs by competitive assay; type: cell-based
# HEK293 [5] = assay: as §1, with “at 0.1” for “at 1”; type: cell-based; set-up: scale not given: the % may be the effect or the level left
# HEK293 [6] = assay: as §1, with “at 0.01” for “at 1”; type: cell-based; set-up: scale not given: the % may be the effect or the level left
# HEK293 [7] = assay: as §1, with “at 10” for “at 1”; type: cell-based; set-up: scale not given: the % may be the effect or the level left
# MCF7 [8] = assay: PROTAC activity at E3-ubiquitin ligase/ER-alpha expressed in UBR1 knockdown human MCF7 cells assessed as induction of ER-alpha degradation by measuring ER-alpha to beta actin ratio at 100 uM incubated for 24 hrs by Western blotting analysis (reference value: 100%); type: cell-based
# MCF7 [9] = assay: PROTAC activity at E3-ubiquitin ligase/ER-alpha expressed in UBR2 knockdown human MCF7 cells assessed as induction of ER-alpha degradation by measuring ER-alpha to beta actin ratio at 30 uM incubated for 24 hrs by Western blotting analysis (reference value: 100%); type: cell-based
# MCF7 [10] = assay: PROTAC activity at E3-ubiquitin ligase/ER-alpha expressed in human MCF7 cells assessed as induction of ER-alpha degradation incubated for 24 hrs in presence of MLN7243 by measuring ER-alpha to beta actin ratio at 100 uM by Western blotting analysis (reference value: 100%); type: cell-based
# MCF7 [11] = assay: PROTAC activity at E3-ubiquitin ligase/ER-alpha expressed in UBR5 knockdown human MCF7 cells assessed as induction of ER-alpha degradation by measuring ER-alpha to beta actin ratio at 30 uM incubated for 24 hrs by Western blotting analysis (reference value: 16%); type: cell-based
# MCF7 [12] = assay: PROTAC activity at E3-ubiquitin ligase/ER-alpha expressed in human MCF7 cells assessed as induction of ER-alpha degradation incubated for 24 hrs by measuring ER-alpha to beta actin ratio at 30 uM by Western blotting analysis (reference value: 100%); type: cell-based
# MCF7 [13] = assay: PROTAC activity at E3-ubiquitin ligase/ER-alpha expressed in human MCF7 cells assessed as decrease in ER-alpha protein level by measuring […] at 0.3 uM incubated for 24 hrs by Western blotting analysis (reference value: 100%); type: cell-based; set-up: scale not given: the % may be the effect or the level left
# MCF7 [14] = assay: PROTAC activity at E3-ubiquitin ligase/ER-alpha expressed in human MCF7 cells assessed as induction of ER-alpha degradation by measuring ER-alpha to beta actin ratio at 30 uM incubated for 24 hrs by Western blotting analysis (reference value: 100%); type: cell-based
# MCF7 [15] = assay: Antiproliferative activity against human MCF7 cells assessed as inhibition of cell viability; type: functional, cell-based; conditions: dose 1-100 µM
# MCF7 [16] = assay: PROTAC activity at E3-ubiquitin ligase/ER-alpha expressed in human MCF7 cells assessed as decrease in ER-alpha protein level by measuring […] at 100 uM incubated for 24 hrs by Western blotting analysis (reference value: 100%); type: cell-based; set-up: scale not given: the % may be the effect or the level left
# MCF7 [17] = assay: PROTAC activity at E3-ubiquitin ligase/ER-alpha expressed in human MCF7 cells assessed as decrease in ER-alpha protein level by measuring […] at 30 uM incubated for 24 hrs by Western blotting analysis (reference value: 100%); type: cell-based; set-up: scale not given: the % may be the effect or the level left
# MCF7 [18] = assay: PROTAC activity at E3-ubiquitin ligase/ER-alpha expressed in human MCF7 cells assessed as induction of ER-alpha degradation incubated for 24 hrs in presence of MG132 by measuring ER-alpha to beta actin ratio at 100 uM by Western blotting analysis (reference value: 100%); type: cell-based
# MCF7 [19] = assay: PROTAC activity at E3-ubiquitin ligase/ER-alpha expressed in UBR1 knockdown human MCF7 cells assessed as induction of ER-alpha degradation by measuring ER-alpha to beta actin ratio at 30 uM incubated for 24 hrs by Western blotting analysis (reference value: 100%); type: cell-based
# MCF7 [20] = assay: PROTAC activity at E3-ubiquitin ligase/ER-alpha expressed in human MCF7 cells assessed as decrease in ER-alpha protein level by measuring ER-alpha to beta actin ratio at 30 uM incubated for 24 hrs Western blotting analysis (reference value: 100%); type: cell-based; set-up: scale not given: the % may be the effect or the level left
# MCF7 [21] = assay: PROTAC activity at E3-ubiquitin ligase/ER-alpha expressed in human MCF7 cells assessed as decrease in ER-alpha protein level by measuring […] at 0.1 uM incubated for 24 hrs by Western blotting analysis (reference value: 100%); type: cell-based; set-up: scale not given: the % may be the effect or the level left
# MCF7 [22] = assay: PROTAC activity at E3-ubiquitin ligase/ER-alpha expressed in human MCF7 cells assessed as induction of ER-alpha degradation by measuring ER-alpha to beta actin ratio at 100 uM incubated for 24 hrs by Western blotting analysis (reference value: 100%); type: cell-based
# MCF7 [23] = assay: PROTAC activity at E3-ubiquitin ligase/ER-alpha expressed in human MCF7 cells assessed as decrease in ER-alpha protein level by measuring […] at 0.03 uM incubated for 24 hrs by Western blotting analysis (reference value: 100%); type: cell-based; set-up: scale not given: the % may be the effect or the level left
# MCF7 [24] = assay: PROTAC activity at E3-ubiquitin ligase/ER-alpha expressed in UBR4 knockdown human MCF7 cells assessed as induction of ER-alpha degradation by measuring ER-alpha to beta actin ratio at 30 uM incubated for 24 hrs by Western blotting analysis (reference value: 16%); type: cell-based
# MCF7 [25] = assay: PROTAC activity at E3-ubiquitin ligase/ER-alpha expressed in human MCF7 cells assessed as induction of ER-alpha degradation incubated for 24 hrs by measuring ER-alpha to beta actin ratio at 100 uM by Western blotting analysis (reference value: 100%); type: cell-based
# MCF7 [26] = assay: PROTAC activity at E3-ubiquitin ligase/ER-alpha expressed in human MCF7 cells assessed as decrease in ER-alpha protein level by measuring […] at 10 uM incubated for 24 hrs by Western blotting analysis (reference value: 100%); type: cell-based; set-up: scale not given: the % may be the effect or the level left
# MCF7 [27] = assay: PROTAC activity at E3-ubiquitin ligase/ER-alpha expressed in UBR5 knockdown human MCF7 cells assessed as induction of ER-alpha degradation by measuring ER-alpha to beta actin ratio at 100 uM incubated for 24 hrs by Western blotting analysis (reference value: 41%); type: cell-based
# MCF7 [28] = assay: PROTAC activity at E3-ubiquitin ligase/ER-alpha expressed in human MCF7 cells assessed as decrease in ER-alpha protein level by measuring […] at 3 uM incubated for 24 hrs by Western blotting analysis(reference value: 100%); type: cell-based; set-up: scale not given: the % may be the effect or the level left
# MCF7 [29] = assay: PROTAC activity at E3-ubiquitin ligase/ER-alpha expressed in human MCF7 cells assessed as induction of ER-alpha degradation incubated for 24 hrs in presence of MLN7243 by measuring ER-alpha to beta actin ratio at 30 uM by Western blotting analysis (reference value: 100%); type: cell-based
# MCF7 [30] = assay: PROTAC activity at E3-ubiquitin ligase/ER-alpha expressed in UBR4 knockdown human MCF7 cells assessed as induction of ER-alpha degradation by measuring ER-alpha to beta actin ratio at 100 uM incubated for 24 hrs by Western blotting analysis (reference value: 41%); type: cell-based
# MCF7 [31] = assay: PROTAC activity at E3-ubiquitin ligase/ER-alpha expressed in human MCF7 cells assessed as decrease in ER-alpha protein level by measuring […] at 1 uM incubated for 24 hrs by Western blotting analysis (reference value: 100%); type: cell-based; set-up: scale not given: the % may be the effect or the level left
# MCF7 [32] = assay: PROTAC activity at E3-ubiquitin ligase/ER-alpha expressed in human MCF7 cells assessed as induction of ER-alpha degradation incubated for 24 hrs in presence of MG132 by measuring ER-alpha to beta actin ratio at 30 uM by Western blotting analysis (reference value: 100%); type: cell-based
# MCF7 [33] = assay: PROTAC activity at E3-ubiquitin ligase/ER-alpha expressed in UBR2 knockdown human MCF7 cells assessed as induction of ER-alpha degradation by measuring ER-alpha to beta actin ratio at 100 uM incubated for 24 hrs by Western blotting analysis (reference value: 100%); type: cell-based
# MCF7 [34] = assay: Induction of ER-alpha degradation (unknown origin) at 30 uM in presence of 4-OHT by measuring ER-alpha to beta actin ratio incubated for 24 hrs Western blotting analysis (reference value: 100%); type: cell-based; conditions: Homo sapiens
# MCF7 [35] = assay: Induction of ER-alpha degradation (unknown origin) at 30 uM by measuring ER-alpha to beta actin ratio incubated for 24 hrs Western blotting analysis (reference value: 100%); type: cell-based; conditions: Homo sapiens
structure (smiles),measurement,setting,value
ClCCCCCCOCCOCCN1CCN(C2=Nc3cc(Cl)ccc3Nc3ccccc32)CC1,Activity,HEK293 [1],57%
same,Activity,HEK293 [2],22%
same,Activity,HEK293 [3],inactive
same,Activity,HEK293 [4],Not active; Complete Recovery Of Luminescence Not Observed
same,Activity,HEK293 [5],97%
same,Activity,HEK293 [6],103%
same,Activity,HEK293 [7],32%
CC/C(=C(/c1ccc(O)cc1)c1ccc(OCCN(C)C(=O)CCC(=O)NCCOCCOCCOCCN2CCN(C3=Nc4cc(Cl)ccc4Nc4ccccc43)CC2)cc1)c1ccccc1,Activity,MCF7 [8],28%
same,Activity,MCF7 [9],27%
same,Activity,MCF7 [10],104%
same,Activity,MCF7 [11],45%
same,Activity,MCF7 [12],51%
same,Activity,MCF7 [13],148%
same,Activity,MCF7 [14],16%
same,Activity,MCF7 [15],Dose-dependent-effect
same,Activity,MCF7 [16],33%
same,Activity,MCF7 [17],42%
same,Activity,MCF7 [18],152%
same,Activity,MCF7 [19],14%
same,Activity,MCF7 [20],37%
same,Activity,MCF7 [21],132%
same,Activity,MCF7 [22],41%
same,Activity,MCF7 [23],122%
same,Activity,MCF7 [24],1%
same,Activity,MCF7 [25],27%
same,Activity,MCF7 [26],116%
same,Activity,MCF7 [27],51%
same,Activity,MCF7 [28],160%
same,Activity,MCF7 [29],121%
same,Activity,MCF7 [30],21%
same,Activity,MCF7 [31],160%
same,Activity,MCF7 [32],163%
same,Activity,MCF7 [33],40%
CN1CCN(C2=Nc3cc(Cl)ccc3Nc3ccccc32)CC1,Activity,MCF7 [34],91%
same,Activity,MCF7 [35],104%
CC/C(=C(\c1ccc(O)cc1)c1ccc(OCCN(C)C)cc1)c1ccccc1,Activity,MCF7 [35],116%
